As a reminder, the MIC is the lowest concentration found to suppress growth.

Values after ≈ are worked out from the molar mass of the structure shown.

From publication PMC11823630, “In vitro potentiation of tetracyclines in Pseudomonas aeruginosa by RW01, a new cyclic peptide” (Antimicrobial Agents and Chemotherapy, 2024) come the findings set out here.

Assay [1] deals with PAO1 mutant MIN8_1, nalD(R3C), pilM(Q62X). The experiment in a line: MIC, E-test on MHA. In kind it is cell-based. Particulars: Pseudomonas aeruginosa, PAO1, read-out: MIC, E-test.
The test system of assay [2] is PAO1 mutant MIN1_RW01_2, mexR(G58E), pilB(G326D), hutC(Y181X). The experiment in a line: MIC, E-test on MHA. Format: cell-based. Conditions: Pseudomonas aeruginosa, PAO1, read-out: MIC, E-test.
In another assay the test system is P. aeruginosa PAO1, WT. Description: MIC, E-test on MHA. Format: cell-based. Particulars: Pseudomonas aeruginosa, PAO1, read-out: MIC, E-test.
Assay [3] relates to PAO1 mutant MIN1_RW01_4, pmrB(F124L). The experiment in a line: MIC, E-test on MHA. Format: cell-based. Particulars: Pseudomonas aeruginosa, PAO1, read-out: MIC, E-test.
The test system of assay [4] is PAO1 mutant MIN2_RW01_4, pmrB(M292T). Description: MIC, E-test on MHA. In kind it is cell-based. Particulars: Pseudomonas aeruginosa, PAO1, read-out: MIC, E-test.
The subject of assay [5] is PAO1 mutant MIN16_2, nalC(aa9∆4), pilQ(nt46∆1). Description: MIC, E-test on MHA. In kind it is cell-based. Particulars: Pseudomonas aeruginosa, PAO1, read-out: MIC, E-test.
Assay [6] concerns PAO1 mutant MIN1_RW01_1, pmrB(Y98N). The experiment in a line: MIC, E-test on MHA. Particulars: Pseudomonas aeruginosa, PAO1, read-out: MIC, E-test. Format: cell-based.
The test system of assay [7] is PAO1 mutant MIN4_RW01_1, pmrB(R429H). Description: MIC, E-test on MHA. Format: cell-based. Conditions: Pseudomonas aeruginosa, PAO1, read-out: MIC, E-test.
Assay [8] deals with PAO1 mutant MIN2_RW01_3, parS(V152A). Description: MIC, E-test on MHA. Conditions: Pseudomonas aeruginosa, PAO1, read-out: MIC, E-test. In kind it is cell-based.
For assay [9], the system named is PAO1 mutant MIN8_4, pilZ(nt18InsT). Description: MIC, MHB microdilution. Conditions: Pseudomonas aeruginosa, PAO1, read-out: MIC, MHB microdilution. On the technique in general: Dilution methods test growth across graded concentrations, often in twofold steps.
For assay [10], the system named is PAO1 mutant MIN16_1, nalD(T43P). The experiment in a line: MIC, MHB microdilution. Particulars: Pseudomonas aeruginosa, PAO1, read-out: MIC, MHB microdilution.
The subject of assay [11] is PAO1 mutant MIN16_2, nalC(aa9∆4), pilQ(nt46∆1). Description: MIC, MHB microdilution. Conditions: Pseudomonas aeruginosa, PAO1, read-out: MIC, MHB microdilution.
Assay [12] has as its system PAO1 mutant MIN32_1, mexR(R63H), pilB(N349K), PA0646(V316G). The experiment in a line: MIC, MHB microdilution. Conditions: Pseudomonas aeruginosa, PAO1, read-out: MIC, MHB microdilution.
In assay [13] the test system is PAO1 mutant MIN2_RW01_2, pmrB(M292T). The experiment in a line: MIC, MHB microdilution. Particulars: Pseudomonas aeruginosa, PAO1, read-out: MIC, MHB microdilution.
Assay [14] concerns PAO1 mutant MIN8_2, pilZ(nt18InsT). Description: MIC, MHB microdilution. Particulars: Pseudomonas aeruginosa, PAO1, read-out: MIC, MHB microdilution.
The test system of a further assay is PAO1 one-step mutants. Description: MIC, MHB microdilution, mutants summarised as a group. Format: cell-based, Pseudomonas aeruginosa. The procedure: (§1) MIC for RW01 was also tested.
Selection of resistant mutants was performed for minocycline with and without RW01 in three independent replicates for wild-type P. aeruginosa reference strain PAO1. Tubes containing Mueller-Hinton broth (MHB) were inoculated and incubated for 24 h at 37°C. Afterward, 1/100 dilution of each tube was incubated at 37°C in MHB to late-exponential growth phase, measured by spectrophotometry at OD600. […] A control plate without antibiotic was included as inoculum control. After overnight incubation, colony counting of each treatment was performed to analyze the generation of resistant population. The mutant prevention concentration (MPC) was defined as the lowest concentration of antibiotic yielding no growth of resistant mutants. Selected mutants were checked for susceptibility profiles by using a Sensititre custom plate (Thermo Fisher Scientific, Massachusetts, USA) for Gram-negative bacteria, following the manufacturer’s instructions.

Assay [15] has as its system PAO1 mutant MIN4_RW01_3, pmrB(M292T). Description: MIC, MHB microdilution. Conditions: Pseudomonas aeruginosa, PAO1, read-out: MIC, MHB microdilution.
Another assay relates to P. aeruginosa PAO1. The experiment in a line: Checkerboard assay with RW01. In kind it is cell-based, Pseudomonas aeruginosa. Particulars: for average FIC Index: antibiotic combined with RW01, checkerboard, AST broth, 37°C, 18–22 h, three biological replicates. Here is the method:
(§2) To assess the in vitro interaction between RW01 and tetracyclines, the checkerboard assay method was performed in 96-well microtiter plates using strains PAO1 and PAOUW. In the same way as for MIC determination, BD Phoenix AST Broth (Becton Dickinson) medium was used for bacterial growth. Minocycline and tigecycline combined with RW01 were the agents selected for the assay. A column and a row of wells in the checkerboard plate were reserved for controls of each antimicrobial individually to ensure the proper concentration of the agents. Positive and negative controls were also included. Wells in rows contained serial dilutions of RW01 starting from 512 mg/L, while those in columns varied in concentrations of the antibiotic. Inoculum at ~5 × 10⁵ CFU/mL, antibiotic, RW01, and AST broth were added to a final volume of 200 µL. Plates were incubated at 37°C for 18–22 h under aerobic conditions. Three biological replicates were obtained. Fractional inhibitory concentration index (FICI) is defined as the summatory of fractional inhibitory concentrations (FICs) from compound A: RW01, and compound B: minocycline/tigecycline. FICs were calculated as:
(§3) FIC of RW01 (FICRW01)=MIC of RW01 in combination/MIC of RW01 alone,FIC of antibiotic (FICATB)=MIC of ATB in combination/MIC of ATB alone,FICI=FICRW01 +FICATB.
(§4) FICI was interpreted as follows: synergistic effect if FICI is ≤0.5; additive effect if 0.5 < FICI ≤ 1.0; indifferent effect if 1.0 < FICI ≤ 2.0; and finally, antagonistic effect if FICI is >2.0. The average FICI considering the antibiotic MIC (no growth in any of the replicates) at different concentrations of RW01 was calculated ([28]).

Another assay concerns P. aeruginosa PAOUW. The experiment in a line: Checkerboard assay with RW01. Format: cell-based, Pseudomonas aeruginosa. Particulars: for average FIC Index: antibiotic combined with RW01, checkerboard, AST broth, 37°C, 18–22 h, three biological replicates. Here is the method: as §2, §3, §4
The subject of assay [16] is PAO1 mutant MIN16_3, nfxB(nt79∆14), pilB(N349K). Description: MIC, MHB microdilution. Particulars: Pseudomonas aeruginosa, PAO1, read-out: MIC, MHB microdilution.
For assay [17], the system named is PAO1 mutant MIN8_1, nalD(R3C), pilM(Q62X). Description: MIC, MHB microdilution. Conditions: Pseudomonas aeruginosa, PAO1, read-out: MIC, MHB microdilution.
Assay [18] relates to PAO1 mutant MIN1_RW01_2, mexR(G58E), pilB(G326D), hutC(Y181X). The experiment in a line: MIC, MHB microdilution. Particulars: Pseudomonas aeruginosa, PAO1, read-out: MIC, MHB microdilution.
Assay [19] has as its system PAO1 mutant MIN8_3, pilZ(nt18InsT). Description: MIC, MHB microdilution. Conditions: Pseudomonas aeruginosa, PAO1, read-out: MIC, MHB microdilution.
The next assay deals with 10 P. aeruginosa strains. Description: MIC with and without RW01, summary over the strain collection. Particulars: RW01 100 mg/L; all strains tested. In kind it is cell-based, Pseudomonas aeruginosa. Here is the method: as §1

Consider `C[C@H]1c2cccc(O)c2C(=O)C2=C(O)[C@]3(O)C(=O)C(C(N)=O)=C(O)[C@@H](N(C)C)[C@@H]3[C@@H](O)[C@@H]21` [Doxycycline, doxycycline], for which the MIC in [1] amounted to 256 µg/mL (≈ 576 µM); in assay [2], 256 µg/mL (≈ 576 µM); in the assay with P. aeruginosa PAO1, WT it was 32 µg/mL (≈ 72 µM); in assay [3], 96 µg/mL (≈ 216 µM); in assay [4], 64 µg/mL (≈ 144 µM); in [5] it was 128 µg/mL (≈ 288 µM). Moreover, the results for the MIC in assay [6], in assay [7] and in assay [8] were 96 µg/mL (≈ 216 µM), 256 µg/mL (≈ 576 µM) and 256 µg/mL (≈ 576 µM), respectively.
`CN(C)c1ccc(O)c2c1C[C@H]1C[C@H]3[C@H](N(C)C)C(O)=C(C(N)=O)C(=O)[C@@]3(O)C(O)=C1C2=O` [Minocycline, minocycline]: the MIC in [9] is 16 µg/mL (≈ 35 µM); in [10] it was 16 µg/mL (≈ 35 µM); in [11], 16 µg/mL (≈ 35 µM); in [12], 32 to 64 µg/mL (≈ 69.9 to 140 µM); in assay [13], 16 to 32 µg/mL (≈ 35 to 69.9 µM); in [14] it was 16 µg/mL (≈ 35 µM). The MIC in the assay with PAO1 one-step mutants (Pseudomonas aeruginosa, PAO1, read-out: highest MIC among the mutants) is not above 64 µg/mL; in [15] it was 64 µg/mL (≈ 140 µM); in assay [16] it was 16 to 32 µg/mL (≈ 35 to 69.9 µM); in assay [17], 16 µg/mL (≈ 35 µM); in assay [18], 32 to 64 µg/mL (≈ 69.9 to 140 µM); in assay [19], 16 µg/mL (≈ 35 µM). In addition, the “MIC range over the tested mutants” value in the assay on PAO1 one-step mutants (agent alone, both mutant types, for minocycline the typical range) is 16 to 32 µg/mL. Further, the “MIC of the minocycline-RW01 combination” value in the assay with PAO1 one-step mutants (mutants selected by minocycline + RW01) lay in the range of 4.0 to 8.0 µg/mL. For the same compound, the “interaction with RW01 (checkerboard)” value in the assay on P. aeruginosa PAO1 is recorded as “additive”; with P. aeruginosa PAOUW, “synergistic”. Moreover, the “average FIC Index” value came to 0.535 in the assay on P. aeruginosa PAO1 and 0.406 in the assay with P. aeruginosa PAOUW.
Consider `CN(C)c1cc(NC(=O)CNC(C)(C)C)c(O)c2c1C[C@H]1C[C@H]3[C@H](N(C)C)C(O)=C(C(N)=O)C(=O)[C@@]3(O)C(O)=C1C2=O` [Tigecycline, tigecycline], for which the MIC in assay [1] was 32 µg/mL (≈ 54.6 µM); in assay [2], 32 µg/mL (≈ 54.6 µM); in the assay on P. aeruginosa PAO1, WT, 6 to 8 µg/mL (≈ 10.2 to 13.7 µM); in assay [3] it was 24 µg/mL (≈ 41 µM); in assay [4], 16 µg/mL (≈ 27.3 µM); in assay [5] it was 32 µg/mL (≈ 54.6 µM). The MIC was 24 µg/mL (≈ 41 µM) in [6], 16 µg/mL (≈ 27.3 µM) in [7] and 48 µg/mL (≈ 82 µM) in assay [8]. Besides, the “MIC reduction on combination with RW01 over the strains” value in the assay on 10 P. aeruginosa strains is “four- to eightfold”. The “interaction with RW01 (checkerboard)” value is listed as “additive” in the assay with P. aeruginosa PAO1 and “synergistic” with P. aeruginosa PAOUW. For the same compound, the “average FIC Index” value was found to be 0.677 in the assay on P. aeruginosa PAO1 and 0.446 in the assay on P. aeruginosa PAOUW.
